The values that follow come from patent US8227508B2, “Dietary and pharmaceutical compositions containing carnosol and/or rosmanol and their uses” (DSM IP Assets B.V., priority 2006, dated 2012).

Assay [1] concerns the target T1, human serotonin re-uptake transporter (hSERT) (Homo sapiens, UniProt P31645).
T1 construct: host or cells: HEK-293
As to the kind of experiment: Serotonin uptake inhibition in HEK-293 cells expressing hSERT. It is filed as cell-based. The conditions noted are these: transfected HEK-293 cells, [3H]-serotonin 20 nM, mean ± s.e.m. (n = 2). As for the experimental part:
The cells were routinely grown in Dulbecco's Modified Eagle's Medium (Bioconcept) containing 10% dialysed foetal calf serum (Invitrogen), penicillin, streptomycin, L-glutamine and the antibiotic G418 and passaged by-trypsinisation. On the day of assay, cells from 80% confluent flasks were harvested by gentle washing with warm phosphate buffered saline (PBS). […] Serotonin uptake into the cells was determined by addition of radio-labelled [^3H]-serotonin (GE Healthcare) at a concentration of 20 nM, and incubation for 40 minutes at 37° C. with gentle shaking. At the end of this time unincorporated label was removed by filtration though Unifilter 96 GF/B plates (Perkin Elmer) using a Tomtec Mach III M cell harvester. The incorporated serotonin retained on the plates was quantified by liquid scintillation counting using Microscint-40/Topcount (Perkin Elmer).

The target in assay [2] is T2, human glycine transporter 1b (GlyT1) (Homo sapiens, UniProt P48067).
T2 construct: expressed in transfected cells; host or cells: CHO
T2 sequence (P48067 1-652 isoform P48067-3): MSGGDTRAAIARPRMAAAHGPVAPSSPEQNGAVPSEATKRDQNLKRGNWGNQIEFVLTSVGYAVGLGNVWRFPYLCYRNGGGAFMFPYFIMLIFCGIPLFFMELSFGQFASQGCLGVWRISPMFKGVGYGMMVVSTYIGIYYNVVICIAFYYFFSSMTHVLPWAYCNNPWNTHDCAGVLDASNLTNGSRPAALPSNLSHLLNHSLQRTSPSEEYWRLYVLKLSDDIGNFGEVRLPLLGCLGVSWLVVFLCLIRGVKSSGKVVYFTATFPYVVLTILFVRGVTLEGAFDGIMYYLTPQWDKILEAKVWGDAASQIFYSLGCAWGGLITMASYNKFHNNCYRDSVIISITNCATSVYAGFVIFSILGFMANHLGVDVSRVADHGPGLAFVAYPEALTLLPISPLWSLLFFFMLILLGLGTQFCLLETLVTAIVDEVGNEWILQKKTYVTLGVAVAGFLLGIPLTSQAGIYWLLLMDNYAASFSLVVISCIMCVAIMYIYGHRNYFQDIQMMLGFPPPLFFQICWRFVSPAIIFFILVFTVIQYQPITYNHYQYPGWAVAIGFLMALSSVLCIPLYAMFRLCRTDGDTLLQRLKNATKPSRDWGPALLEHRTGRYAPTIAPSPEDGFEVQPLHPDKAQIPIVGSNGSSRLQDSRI
Put plainly: Glycine uptake inhibition in CHO cells expressing GlyT1. It is filed as cell-based. Conditions: 60 nM [3H]-glycine. As to the method:
CHO cells stably expressing the human glycine transporter 1b cDNA (GlyT1) were routinely grown in Dulbecco's Modified Eagle's Medium (Invitrogen, Carlsbad, USA) containing 10% dialysed foetal calf serum, penicillin, streptomycin, proline and the antibiotic G418. Cells were harvested by trypsinisation one day prior to the assay and were seeded in the above mentioned medium. Immediately prior to the assay, the medium was replaced by uptake buffer containing 150 mM NaCl, 1 mM CaCl2, 2.5 mM KCl, 2.5 mM MgCl2, 10 mM Glucose and 10 mM N-2-hydroxyethylpiperazine-N′-2-ethanesulfonic acid (HEPES buffer).
Glycine uptake into the cells was determined by addition of 60 nM radiolabelled [^3H]-glycine (Amersham Biosciences GE Healthcare, Slough, UK) and incubation for 30 minutes at room temperature. Following removal of unincorporated label by gentle washing three times with the above buffer, incorporated glycine was quantified by liquid scintillation counting.

The target of assay [3] is T3, monoamine oxidase B (MAO-B) (Homo sapiens, UniProt P27338).
T3 sequence (P27338 1-520): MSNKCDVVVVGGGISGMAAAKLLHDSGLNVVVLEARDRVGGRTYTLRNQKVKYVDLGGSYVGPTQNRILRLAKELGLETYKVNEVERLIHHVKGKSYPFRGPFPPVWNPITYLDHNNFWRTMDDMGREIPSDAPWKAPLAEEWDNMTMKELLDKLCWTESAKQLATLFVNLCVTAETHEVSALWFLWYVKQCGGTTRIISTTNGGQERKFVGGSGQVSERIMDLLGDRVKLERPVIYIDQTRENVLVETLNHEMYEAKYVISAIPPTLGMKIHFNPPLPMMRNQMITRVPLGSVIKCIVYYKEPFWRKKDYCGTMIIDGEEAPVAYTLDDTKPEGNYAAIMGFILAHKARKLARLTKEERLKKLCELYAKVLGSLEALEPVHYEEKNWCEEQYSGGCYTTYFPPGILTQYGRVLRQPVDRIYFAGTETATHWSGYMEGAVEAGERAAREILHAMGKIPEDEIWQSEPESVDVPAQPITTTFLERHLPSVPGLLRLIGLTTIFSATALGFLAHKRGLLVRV
As to the kind of experiment: Monoamine oxidase B inhibition (benzylamine substrate, HRP/vanillic acid readout). It counts as biochemical. Conditions: mean ± s.e.m., n = 2. As for the experimental part:
The organic amines p-tyramine or benzylamine were used as substrates for the monoamine oxidase A (MAO-A) and B (MAO-B) enzymes respectively. The H2O2 produced by this reaction was quantified by reaction with vanillic acid, catalysed by horse radish peroxidase (HRP).
The reactions were carried out at 37° C. in polystyrene microtitre plates. The MAO enzymes (final concentration 2 U/ml) were mixed with either p-tyramine (Sigma, final concentration 0.5 mM) or benzylamine (Sigma, final concentration 0.5 mM) as appropriate and the chromogenic solution (containing vanillic acid (Fluka), 4-aminoantipyrine (Fluka) and horse radish peroxidase (Sigma), final concentrations 0.25 mM, 0.125 mM and 1 U/ml, respectively) in 0.2 M potassium phosphate buffer, pH 7.6. After 40 min incubation, plates were analysed in a microtitre plate absorbance reader, e.g. Spectramax M5 (Molecular Devices Corporation), at 495 nm.
The effects of carnosol and rosmanol on the monoamine oxidase enzymes were determined by their inclusion in the assay at a range of concentrations between 0.03 and 100 μM for 10 minutes prior to and during the incubation with substrate. To determine the effect of the compounds on the HRP-catalysed portion of the reaction, the MAO enzyme was replaced by H2O2 (Molecular Probes, final concentration 50 μM). […]

T1 sequence (P31645 whole entry): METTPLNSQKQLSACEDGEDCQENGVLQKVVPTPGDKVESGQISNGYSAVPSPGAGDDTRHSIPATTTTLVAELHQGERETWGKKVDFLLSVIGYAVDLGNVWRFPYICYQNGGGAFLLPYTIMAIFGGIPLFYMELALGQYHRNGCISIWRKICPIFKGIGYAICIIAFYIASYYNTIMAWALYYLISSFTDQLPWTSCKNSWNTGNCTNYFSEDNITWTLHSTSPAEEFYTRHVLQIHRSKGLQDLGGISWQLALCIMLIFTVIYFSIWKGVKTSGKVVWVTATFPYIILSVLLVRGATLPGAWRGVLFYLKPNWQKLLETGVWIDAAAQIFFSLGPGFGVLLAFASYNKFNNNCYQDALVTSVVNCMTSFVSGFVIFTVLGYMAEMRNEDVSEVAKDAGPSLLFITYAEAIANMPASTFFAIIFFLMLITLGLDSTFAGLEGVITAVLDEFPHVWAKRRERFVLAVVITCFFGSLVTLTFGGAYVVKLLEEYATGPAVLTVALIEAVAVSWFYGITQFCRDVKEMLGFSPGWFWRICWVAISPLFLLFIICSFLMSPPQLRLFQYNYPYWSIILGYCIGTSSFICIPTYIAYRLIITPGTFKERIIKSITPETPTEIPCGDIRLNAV

As for `CC(C)c1cc2c(c(O)c1O)[C@@]13CCCC(C)(C)[C@@H]1C[C@@H]2OC3=O` [Carnosol, carnosol], the IC50 in assay [1] worked out at 26.6 ± 6.9 µM; in assay [2] (read-out: IC50 for tritiated glycine uptake) it was 29.3 µM; in assay [3], 107 ± 19.9 µM.
With `CC(C)c1cc2c(c(O)c1O)[C@@]13CCCC(C)(C)[C@@H]1[C@H](OC3=O)[C@H]2O` [Rosmanol, rosmanol], the 50% inhibitory concentration (IC50) in assay [1] was determined as 23.2 ± 9.7 µM; in assay [3] it was 73.3 ± 11.3 µM. The “IC50 for tritiated glycine uptake (result in words)” value in assay [2] was “inactive”.

The term IC50 denotes the point on the concentration scale where inhibition reaches its midpoint.
